Measurements taken from patent US20250204528A1, “USE OF 2-AMINO-3-INDOLYL BUTYRIC ACID OR 3-METHYLPYRROLIDINE-2-CARBOXYLIC ACID AS PLANT IMMUNITY ELICITOR” (NANJING TIANNONG BIOTECHNOLOGY CO., LTD, priority 2021, published 2025).
Where “and” joins values, the source holds several entries; their conditions need not be identical. Equal entries are not always repeated.

Legend:
[1] = test system: Pseudomonas syringae PstDC3000; assay: Induction of Arabidopsis thaliana against infection by Pseudomonas syringae; assay type: in vivo; settings: for Disease index reduced by / Number of the bacteria in each milligram of the leaves reduced by: compared with blank control; for CFU (mg), number of bacteria in each milligram of the leaves / Disease index: 3 d after inoculation
Method: 2-amino-3-indolyl butyric acid was dissolved in sterile water and gradiently diluted with sterile water to obtain solutions of 100 nm, 1,000 nm and 10,000 nm. A blank control was additionally set. Meanwhile, 0.02% Tween 20 was added as a surfactant. Pseudomonas syringae PstDC3000 was coated on an LB plate and cultured at 28° C. for 48 h; monoclonal colonies were selected, inoculated into a 50-mL centrifuge tube containing 2 mL of a culture medium, and cultured on a shaking table at 28° C. and 250 rpm, the change of an OD600 value of the bacterial liquid was monitored every 1-2 h, and the culture of the bacteria was stopped before the OD600 value reached 0.8; 1 mL of the bacterial liquid was transferred to a sterile 1.5-mL centrifuge tube for centrifuging at 8,000 rpm for 2 min and the precipitate was collected; the supernatant was removed, the precipitate was washed 3 times with 10 mM of magnesium chloride and centrifuged, and finally the PstDC3000 was resuspended in 10 mM of magnesium chloride enable the OD600 value to reach […] for late use. Arabidopsis thaliana seeds were soaked in 75% alcohol for 3 min, washed with sterile water for 4 times and seeded in a culture dish containing ½ MS culture medium with 12 seeds sown on each culture dish. The ½ MS culture dish carrying the seeds were vernalized at 4° C. for 3 d to break dormancy and then placed in a culture room at 22° C. and the illumination intensity of 100 μEm^−2s^−1 (16 h light/8 h dark). When the seedlings grew for 2 weeks, 2-amino-3-indolyl butyric acid at different concentrations were slowly poured into the culture dish until the whole Arabidopsis thaliana seedlings were submerged for 2-3 min, then the treatment solution was completely poured from the culture dish, and the treatment was performed once every other 24 h for a total of 2 times. The PstDC3000 suspension (OD600=0.01) was inoculated to the Arabidopsis thaliana leaves by using the same submerging method 24 h after the 2nd treatment, and then the culture dish was sealed by a medical breathable adhesive plaster after the inoculation and placed in the culture room for continuous culture. After 3 d, the number of the bacteria subjected to different treatments was determined, the disease condition of the Arabidopsis thaliana was observed, and the disease indexes were calculated by using the same calculation formula as that in example 2.
Grading standard of diseases caused by PstDC3000 (taking leaves as units): • grade 0: the leaf surfaces were free of disease spots; • grade 1: the area of the disease spots accounted for 0%-10% of that of the whole leaves; • grade 2: the area of the disease spots accounted for 10%-25% of that of the whole leaves; • grade 3: the area of the disease spots accounted for 25%-50% of that of the whole leaves; • grade 4: the area of the disease spots accounted for 50%-75% of that of the whole leaves; and • grade 5: the area of the disease spots accounted for 75%-100% of that of the whole leaves.

[2] = test system: wheat powdery mildew fungus; assay: Induction of wheat against infection by powdery mildew fungi (greenhouse pots); assay type: in vivo, wheat (NAU0686); settings: for Disease index of the susceptible wheat / Relative immune effect: concentration greater than 1,000 nm
Method: […] A blank control was additionally set. After germination of wheat (NAU0686) seeds was accelerated, the wheat was planted in a sterilized soil culture bowl and cultured in a greenhouse at 23±1° C. with the illumination for 12 h. When the seedlings grew to a stage of one true leaf and one terminal bud, the wheat seedlings were sprayed with the 2-amino-3-indolyl butyric acid solutions at the above concentrations on stems and leaves. The treatment was repeated once every 24 h and a total of two treatments was performed. Fresh wheat powdery mildew fungus spores were evenly scattered on the wheat leaves after 24 h. 3 pots of the plants were treated each time with 20 plants in each pot. After 10 d, the disease grade of the wheat after each treatment was investigated. The disease degree was recorded according to the wheat powdery mildew grading standard in the Guidelines for Field Efficacy Trials of Pesticides (I), and the disease indexes and the relative immune effects were calculated by using the same calculation formula as that of those of the tomato spotted wilt.
Grading standard of wheat powdery mildew (taking leaves as units): • grade 1: the area of the disease spots accounted 5% or less of that of the whole leaves; • grade 3: the area of the disease spots accounted for 6%-15% of that of the whole leaves; and • grade 5: the area of the disease spots accounted for 16%-25% of that of the whole leaves; and • grade 7: the area of the disease spots accounted for 26%-50% of that of the whole leaves; and • grade 9: the area of the disease spots accounted for 50% or more of that of the whole leaves.

[3] = treatment concentration 1,000 nm
[4] = treatment concentration 10,000 nm

Row | Structure (SMILES) | Disease index reduced by ([1]; 100 nm) | Number of the bacteria in each milligram of the leaves reduced by ([1]; 100 nm) | Disease index reduced by ([1]; 1,000 nm) | Number of the bacteria in each milligram of the leaves reduced by ([1]; 1,000 nm) | Disease index reduced by ([1]; 10,000 nm) | Number of the bacteria in each milligram of the leaves reduced by ([1]; 10,000 nm) | CFU (mg), number of bacteria in each milligram of the leaves ([1]; treatment concentration 100 nm) | Disease index ([1]; treatment concentration 100 nm) | CFU (mg), number of bacteria in each milligram of the leaves [1, 3] | Disease index [1, 3] | CFU (mg), number of bacteria in each milligram of the leaves [1, 4] | Disease index of the susceptible wheat [2] | Relative immune effect [2] | Relative immune effect (%) ([2]; treatment concentration 10 nm) | Relative immune effect (%) ([2]; treatment concentration 100 nm) | Relative immune effect (%) [2, 3] | Relative immune effect (%) [2, 4]
1 | CC(c1c[nH]c2ccccc12)C(N)C(=O)O (stereo not drawn) | 51.25% | 76.75% | 53.92% | 80.97% | 64.42% | 85.039% and 85.03% | 7.44 × 10^5 CFU (mg) | 40.53 ± 1.95b | 6.09 × 10^5 CFU (mg) | 38.31 ± 1.80b | 4.79×10^5 CFU (mg) | lower than 50 | exceeded 50% | 22.04% | 32.59% | 53.58% | 68.42% and 68.43%
2 | CC1CCNC1C(=O)O (stereo not drawn) [3-methylpyrrolidine-2-carboxylic acid] | 41.13% | 70.78% | 52.47% | 80.90% | 72.69% | 94.92% and 94.90% | 9.41 × 10^5 CFU (mg) | 50.14 ± 1.54b | 6.15 × 10^5 CFU (mg) | 40.48 ± 0.17c | 1.64×10^5 CFU (mg) | lower than 50 | exceeded 50% | 25.04% | 43.73% |  | 68.57%
